Here are results for two compounds from patent EP4140481A1, “PROTEIN-OLIGOMER BINDING AGENTS AND THERAPEUTIC USES THEREOF” (Galyan Bio, Inc., priority 2021, dated 2023).

Structures are written as SMILES. Entries after “also recorded” stand apart in the source; their conditions may differ.

A short description of data set [1]: Pharmacokinetics of Compound 22 in plasma and brain (UHPLC-TOF). It is filed as in vivo, male CD1 mice. The protocol: Compound 22 pharmacokinetic properties was measured in three male CD1 mice at several timepoints. Compound 22 was dissolved in 10% DMSO, 10%, cremaphor, and 80% saline. The tested dose was 33.3 mg/kg body weight. Brain tissue was homogenized and protein precipitated with acetonitrile. […] As such, Compound 22 was selected for testing in an animal model of HD the R6/2 model. As described below, Compound 22 and its analogs were further tested for their effects on striatal cell viability and effects of mHTT levels.

A short description of data set [2]: Body weight in R6/2 mice of Huntington's disease. It is filed as in vivo. The method, then: (§1) Methods ― Total of 20 female and male R6/2 mice and 10 female and male wild-type littermate control mice (WT) were used in the study. The mice were genotyped and the R6/2 mice were divided into different treatment groups based on their litter and baseline body weight. The treatment with Vehicle or Compound 22 (33 mg/kg; 5 ml/kg, i.p. QD) was started at 4 weeks of age after the baseline behavioral tests (Figure 6). Body weights were measured at 3 weeks of age and twice a week until the end of the study.
(§2) The experimental groups were: • Group 1) 10 wild-type mice (mixed gender) treated with Vehicle (5 ml/kg, i.p., QD) starting at 4 weeks of age • Group 2) 10 R6/2 mice (mixed gender) treated with Vehicle (5 ml/kg, i.p., QD) starting at 4 weeks of age • Group 3) 10 R6/2 mice (mixed gender) treated with Compound 22 (33 mg/kg; 5 ml/kg, i.p. QD) starting at 4 weeks of age
Compound Delivery and Dosing - Treatment with Compound 22 (33 mg/kg; 5 ml/kg, i.p. QD) or Vehicle was started at age week 4 and continued until the 12 weeks of age. The test articles were handled and stored and the dose formulations were prepared according to detailed instructions provided by the Sponsor.
Body Weight - Body weight was measured starting at 3 weeks of age before treatment onset and two times per week on the same day (on Monday and Friday) until the end of the study.

The next data set relates to R6/2 mice. Description: Grip strength in R6/2 mice of Huntington's disease. As to conditions: 33 mg/kg i.p. QD; versus vehicle treated R6/2 mice. It is filed as in vivo. The method, then: as §1, §2
Compound Delivery and Dosing - Treatment with Compound 22 (33 mg/kg; 5 ml/kg, i.p. QD) or Vehicle was started at age week 4 and continued until the 12 weeks of age. […]
Mice were taken to the experimental room and, one at a time, were placed on the grip strength apparatus (San Diego Instruments, San Diego, USA) in such a way that the animal grabbed a small mesh grip with its forepaws. […] Five scores were recorded per animal in consecutive sequence, and the average of three best scores for each animal was used for the results. […]

The test system of data set [3] is STHdh 111/111 striatal cells. Description: Cell viability after heat shock (CellTiter Glo). The note with it: heat shocked STHdh 111/111 versus STHdh 7/7 control cells.
Protocol: Cell culture - ST HDH Q111/111 (CH00095, Coriell Institute) striatal derived cell line were grown at 33°C in DMEM (Sigma-Aldrich), supplemented with 10% fetal bovine serum (FBS), 1% Penicillin-Streptomycin (ThermoFisher Scientific), and 0.4 mg/ml G418 (Geneticin; Invitrogen). ST HDH Q111/111 are mouse striatal cells with polyQ length of 111.
Pre-Treatment of striatal cell line - First the medium was removed and new DMEM (DMEM, high glucose, HEPES, no phenol red) medium, supplemented with 10% fetal bovine serum (FBS), 1% Penicillin-Streptomycin, containing 10 µM compound was added. The cells were incubated at 33 °C for 24 hours.
Heat shock - Cells were heat shocked for 3 hours at 41 °C.
Treatment - Medium was removed and new DMEM (DMEM, high glucose, HEPES, no phenol red) medium, supplemented with 1% fetal bovine serum (FBS), 1% Penicillin-Streptomycin, containing 10 µM compound was added. The cells were incubated at 33 °C for 48 hours.
Cell Viability - Cell viability was measured according to manufacturer recommendations with CellTiter Glo (Promega).
For another data set, the target named is T1, Amyloid-β 1-40 (Ab40) (Homo sapiens, UniProt P05067).
T1 construct: purchased rPeptide, Watkinsville, Georgia A-1153-2
The data set is described as follows: Dynamic Light Scattering (DLS), induced aggregation. Format: biochemical. The note with it: equimolar Compound 4. The method, then: Proteins were ultracentrifuged with 50,000 rpm (rounds per minute) for one hour at 2 °C. The supernatant was used for DLS measurements. DLS measurements were conducted with Malvern Zetasizer Nano (Malvern Panalytical Ltd, United Kingdom).
Amyloid-β 1-40 (Ab40) (catalog A-1153-2, rPeptide, Watkinsville, Georgia) Sequence
The aliquots of lyophilized Amyloid-β 1-40 (Ab40) peptide were hydrated at room temperature in 50 mM phosphate buffer pH 7.4 and 100 mM NaCl (Buffer 1)
The aliquots of lyophilized Ab peptide were hydrated at room temperature in 75 mM MOPS pH 7.4 and 2 mM CaCl2 (Buffer 2)

Setting [4] is: Buffer 1, Ab40 154 µM, 100% of Ab40.
Setting [5] is: by intensity, Buffer2, Ab40 155 µM.

T1 sequence (P05067 672-711): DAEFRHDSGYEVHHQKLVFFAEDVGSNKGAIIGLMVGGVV

For the compound `Cc1[nH]c2ccc(C(=O)NCCN(C(C)C)C(C)C)cc2c1C` [Compound 22], in data set [1] (33.3 mg/kg body weight, plasma and brain), the “penetration of the blood brain area in vivo” value was “penetrates the blood brain area; also recorded: can penetrate the blood brain area in vivo”. Also, the “Blood Brain Barrier Penetrability AUCbrain/AUCplasma” value in data set [1] (Compound 22 in mice) is “AUCbrain/AUCplasma = 2.24”. Besides, in data set [1] (male, CD1, mouse, brain, ip, 33.3 mg/kg body weight, i.p. administration and formulation, read-out: Brain exposure Cmax), the Cmax was found to be 5.56 µM. Further, in data set [2] (33 mg/kg i.p. QD, R6/2 mice 3 to 12 weeks, versus vehicle treated R6/2 mice), the body weight entry is given as “no significant differences”. In addition, the Body weight loss entry in data set [2] (female R6/2 mice at week 12, in comparison to untreated female R6/2 mice) is “significantly improved”. In data set [2] (male R6/2 mice at week 12, in comparison to untreated male R6/2 mice), the “Body weight loss improvement” value was “not observed”. In addition, the grip strength result in the data set with R6/2 mice is given as “no significant differences”. Besides, in data set [3], the “cell viability at 24 hours after treatment” value is “almost equivalent to the cell viability of STHdh 7/7 control cells”.

Turning to `CCc1c(C)[nH]c2ccc(C(=O)NCCN(CC)CC)cc12` [Compound 4, N-(2-(diethylamino)ethyl)-3-ethyl-2-methyl-1H-indole-5-carboxamide], at Amyloid-β 1-40 (Ab40) (setting [4]), the “mean size, distribution by number” value is 141.5 nm and the “mean size, distribution by volume” value is 208.5 nm. Moreover, the “Size, Peak 1” value at Amyloid-β 1-40 (Ab40) (by intensity, Buffer2 (MOPS, CaCl2), Ab40 155 µM) came out at 304.8 nm. Also, at Amyloid-β 1-40 (Ab40) (setting [5]), the “% Intensity, Peak 1” value stood at 55.5%; the “% Intensity, Peak 2” value was 33.5%; the “% Intensity, Peak 3” value came to 6.1%; the “Size, Peak 2” value is 77.06 nm. Further, the “Size, Peak 3” value on Amyloid-β 1-40 (Ab40) (setting [5]) is recorded as 0.7710 nm.
